A melting point compilation (Tetko et al.; mined from patent text by program, amines drawn as free bases though some values may be those of a salt)

Row | melting point [°C] | Compound
1 | 131 to 132 | O=C(O)CCc1cccc(OCc2ccccc2Cl)c1OCc1ccccc1Cl
2 | 376 | N#Cc1c(Cl)ccc2[nH]c(Sc3cccc4c(=O)cc[nH]c34)nc12
3 | 65 to 66 | CNc1cc(Cl)ccc1C(C)=O
4 | 160 to 162 | CC[C@H](NC(=O)OCC1c2ccccc2-c2ccccc21)[C@@H](O)C(=O)O
5 | 157 to 159 | COc1ccc(C(=O)N2c3ccccc3C(n3c4ccccc4c4ccccc43)CC2CCCCCOc2ccc(F)cc2)cc1OC (stereo not given)
6 | 210 to 213 | COC(=O)c1cc(N)nc(-c2ccc(Cl)cc2F)n1
7 | 71 to 72 | CC(CN(C)C)Nc1ccnc2cc3c(cc12)OCO3 (stereo not given)
8 | 180 | CC(=O)N[C@H]1C(O)O[C@H](CO)[C@@H](F)[C@@H]1O (stereo not given in full)
9 | > 300 | Nc1nc(F)nc2nc[nH]c12
10 | 158 to 161 | COC(=O)[C@H]1CC[C@H](N2CCN(c3ccc(C4(C)CCN(C(=O)C(F)(F)F)CC4)cc3)C2=O)CC1
11 | 140 | Cn1nc(C(F)(F)F)cc1Oc1cc(C#N)cc(Oc2cc(C(F)(F)F)nn2C)n1
12 | 143 to 145 | CNc1c2c(nn1C)N(c1c(C)cc(C)cc1C)CCC2
13 | 79 to 80 | CC(C)(CO)CCCCCC(O)CCCCC(C)(C)CO (stereo not given)
14 | 152 to 155 | CC(=O)Oc1cc2c(c3ccccc13)Nc1ccccc1O2
15 | > 300 | COC(=O)c1cc(N)c(N)cc1OC
16 | 208 to 209 | CCc1nc2c(N)nc3cc(OCc4ccccc4)ccc3c2s1
17 | 125 to 127 | CNC(=O)Nc1cccc(C2=NC(C)(C)Cc3cc(OC)c4c(c32)CC(C)(C)O4)c1
18 | 88 | O=C/C=C/c1cc2ccccc2s1
19 | 311 to 315 | Cn1ccc2c3c(c(-c4ccccc4S(C)=O)cc21)C(=O)NC3=O (stereo not given)
20 | 190 to 191 | O=C(Nc1ccc(Oc2ccnc(N3CCCCC3)n2)c2ccccc12)c1cc(F)cc(N2CCOCC2)c1
21 | 180 | CS(=O)(=O)c1ccc(N2C[C@H](COc3ccon3)OC2=O)cc1
22 | 146 to 147 | O=C(Nc1c(OCc2ccccc2)cc(Br)cc1[N+](=O)[O-])C(F)(F)F
23 | 286 to 288 | O=C(Nc1cc(C(F)(F)F)cc(C(F)(F)F)c1)C1C(=O)C2CCC(CC2)C1=O (stereo not given)
24 | 107 to 111 | O=C(NC[C@H](O)[C@@H](O)[C@H](O)C(=O)CO)OCc1ccccc1

Row | melting point [°C] | Compound
25 | 157 to 159 | O=C(CCCCCN1CCN(c2ccccc2)CC1)Nc1ccc(O)cc1
26 | 164 to 166 | O=C1OCc2cc([N+](=O)[O-])c(Oc3ccc(F)cc3F)cc21
27 | 75 to 78 | CC(C#N)(COc1cc(C#N)ccc1C(F)(F)F)NC(=O)c1ccc(OC(F)(F)F)cc1 (stereo not given)
28 | 189 to 190 | O=C(O)c1ccc2ccc(S(=O)(=O)N(Cc3ccccc3)Cc3ccccc3)cc2c1
29 | 122 | CC1(C)COC(c2ccc3c(c2)C(=O)c2ccccc2CO3)=N1
30 | 208 to 209 | CN(C)C=C(C(=O)C(=O)c1ccccc1)c1ccc(C(=O)O)cc1
31 | 70 to 77 | O=C(O)CCCCc1ccc2ccccc2c1OCc1ccccc1
32 | 81 to 82 | CC(C)c1nn(-c2ccc(C(F)(F)F)cc2)cc1C=O
33 | 142 to 147 | Fc1cc2c(cc1F)CC(n1c(-c3nnn[nH]3)c[nH]c1=S)C2
34 | > 320 | COc1ccc(-n2c(=O)c3c(Cc4ccccc4)n[nH]c3c3cccnc32)cc1
35 | 45 | Cc1c(N)cccc1C1=NC(C)(C)CO1
36 | 118 to 119 | Cc1c(Br)c2c(c(C)c1NC(=O)CC(C)(C)C)C(c1ccc(C(C)C)cc1)CO2 (stereo not given)
37 | 136 | CC(C)(C)c1c(OCc2ccccc2)ccc2oc(C=O)cc12
38 | 159 to 160 | CCSC=C1SC(=O)N(CCCCSc2cccc3nccn23)C1=O
39 | 91 to 98 | CCC1CCC(CCc2ccccc2NC(=O)C=Cc2ccccc2)N(C)C1 (stereo not given)
40 | 51 to 53 | CCOC(=O)c1ccnn1-c1c(Cl)cccc1Cl
41 | 130 to 132 | COc1ccc(COc2ccc(Oc3c(C)cc(/C=C/C(=O)N4CCN(Cc5ccc(/C=C/COc6ccc(C)cc6)cc5)CC4)cc3C)nc2)cc1
42 | 92 to 94 | COC(=O)C(C)(C)C(Cc1ccccc1)NCc1ccccc1 (stereo not given)
43 | 248 to 251 | O=C1CCc2cc(NCC(=O)N3CCC(Oc4ccc(Cl)cc4)CC3)ccc2N1
44 | > 285 | CN1CCN(c2ccnc3c(NC(=O)c4c(Cl)cccc4Cl)cc(C(F)(F)F)cc23)C1=O
45 | 85 to 87 | C=Cc1cccc(N2CC(CNC(=O)OC(C)(C)C)C2)n1
46 | 244 to 246 | O=C(Nc1ccc(CN2C(=O)[C@H]3CCC[C@H]3N(C(=O)CN3C(=O)c4ccccc4C3=O)c3ccccc32)cc1)c1ccc(F)cc1 (relative stereo)
47 | 74 | CCOC(=O)CCc1cnn2c(N(C)c3ccccc3)ncnc12
48 | 86 to 89 | CS(=O)(=O)c1ccc(C(CC2CCCC2)C(=O)Nc2ccccn2)cc1C(F)(F)F (stereo not given)

Row | melting point [°C] | Compound
49 | 111 | O=C(Cc1ccnc(Br)c1)c1ccccn1
50 | 204 to 206 | CC(C)N1C(=O)c2cncnc2Nc2ccccc21
51 | 81 | CC(C)(C)[Si](C)(C)OCCOc1cccnc1Br
52 | 104 | CCOP(=O)(Cc1c2ccccc2cc2ccccc12)OCC
53 | 100 to 103 | COC(=O)c1cc(CCN(C)CCCC(C#N)(c2ccc(OC)c(OC)c2)C(C)C)cc(C(=O)OC)c1 (stereo not given)
54 | 105 to 107 | CCCCC1(CCCC)CS(=O)(=O)c2ccc(N(C)C)cc2[C@@H](c2ccc(OCc3cccc(CCC(=O)O)n3)cc2)[C@H]1O
55 | 65 to 68 | CNC(=O)C(Cc1ccc(OC)cc1)NC(=O)C(CC(C)C)C(S)CC(=O)N1CCN(C)CC1 (stereo not given)
56 | 118 to 122 | O=C(CCl)NC1CCc2ccccc2C1=O (stereo not given)
57 | 198 to 199 | Nc1cc(Br)c(Br)cc1[N+](=O)[O-]
58 | 153 to 155 | CCOC(=O)c1[nH]c(=O)c(CC(C)C)[n+]([O-])c1O
59 | > 340 | O=C1c2cccc3cc4c([N+](=O)[O-])cccc4c(c23)C(=O)N1CCNCCCNCCN1C(=O)c2cccc3cc4c([N+](=O)[O-])cccc4c(c23)C1=O
60 | 212 to 213 | Cc1ccc(C=CC(=O)NC(C)c2ccc(NS(C)(=O)=O)c(F)c2)cc1C (stereo not given)
61 | 84 | Cc1cccc(C)c1CO
62 | 95 | CN(CCCCCCNC(=O)NCCSCc1csc(NC(=N)N)n1)CCN(Cc1ccc(F)cc1)c1ccccn1
63 | 256 to 258 | c1ccc(CN2CCN(c3n[nH]c4c3Cc3ccccc3-4)CC2)cc1
64 | 82 to 83 | N#Cc1c(Cl)ccc2ccccc12
65 | 124 to 125 | CCN(CC)CCN1C(=O)C(O)C(c2ccc(OC)cc2)Sc2c1ccc1ccccc21 (stereo not given)
66 | 144 | CCCN(C)S(=O)(=O)c1cccc(-c2cc(-c3nc(-c4ccc(C(F)(F)F)cc4)cc(C(F)(F)F)n3)ccn2)c1
67 | 120 to 121 | CCOc1cccc(-n2cnc(-c3nc(CC)no3)c2)c1
68 | 288 to 290 | CS(=O)(=O)c1ccc(C(=O)O)c(Cl)c1-c1nccs1
69 | 58 to 62 | CC1(Cc2ccc(OCc3ccccc3)cc2)OCCO1
70 | 132 to 133 | CC(C)CNCc1cc2cc(NC(=O)c3ccc(OC[C@@H]4CCCO4)cc3)ccc2n1C
71 | 84 to 88 | O=Cc1cc(Cl)c(Cl)c(Cl)n1
72 | 210 to 211 | Cc1cccc(C(=O)c2[nH]c3cc(Cl)ccc3c2N)n1

Row | melting point [°C] | Compound
73 | 101 to 104 | CS(=O)(=O)CCC(=O)NCc1ccc(/C=C/C(c2cc(Cl)c(Cl)c(Cl)c2)C(F)(F)F)cc1Cl (stereo not given)
74 | 134 to 137 | C[C@H](NC(=O)c1cc(Cl)c(Cl)cc1C(=O)O)C(=O)N1CCC[C@H]1C(=O)O
75 | 126 | CS(=O)(=O)c1ccc(Br)c([N+](=O)[O-])c1
76 | 228 to 230 | COc1cccc(S(=O)(=O)c2ccc3c(c2)[C@@H](Nc2ccnc(Cl)n2)[C@](C)(O)C(C)(C)O3)c1
77 | < 20 | CC1c2ccccc2CCC1CC#N (stereo not given)
78 | 83 | CCCc1cc2c(cc1C=NO)OCO2
79 | 167 | Cc1cc(Cc2cc(C)cc(C(C)(C)C)c2O)c(O)c(-n2nc3ccccc3n2)c1
80 | 137 to 138 | CNC(=O)N(O)C(C)c1ccc(F)c(Br)c1 (stereo not given)
81 | 122 to 124 | OC[C@@H]1CCCN1Cc1cc2cc3c(cc2c2cc(OCc4ccccc4)ccc12)OCO3
82 | 120 to 127 | CC(=O)N[C@@H]1CC[C@@H](O)c2ccccc21 (relative stereo)
83 | 144 to 145 | CC(C)N(O)C(=O)Cc1ccc2c(c1)C(=O)c1ccccc1CO2
84 | 146 to 147 | O=c1c2c(nc3ccc(Cl)cn13)CCC2
85 | 187 to 188 | COC(=O)c1nc(-c2nccs2)cc(NC(C)=O)c1Cl
86 | 267 to 268 | O=C(O)c1cccnc1-c1ccc2[nH]nc(Nc3nccs3)c2c1
87 | 166 to 167 | Cc1c(NC(=O)c2ccc(OC[C@@H]3CCCO3)cc2)ccc2c1cc(CNCC1CCOCC1)n2C
88 | 105 to 106 | COc1cc(Nc2c(C#N)cnc3cc(/C=C/CN4CCOCC4)c(OC)cc23)c(Cl)cc1Cl
89 | 161 to 162 | CCOC(=O)C1=C(COCC=NO)NC(C)=C(C(=O)OC)C1c1ccccc1Cl (stereo not given)
90 | 83 to 89 | CCCC[C@H](NC(=O)[C@H](CC(C)C)NC(=O)OCc1ccc(C#N)cc1)C(=O)CSCc1ccco1
91 | 92 to 93 | CN(C)C1CCN(C2c3ccccc3Oc3ccccc32)CC1
92 | 170 | COC(=O)c1ccccc1NS(=O)(=O)c1nc2nc(C)cc(C)n2n1
93 | 187 to 188 | COc1cc(OC(C)(C)C(=O)O)c(C=O)cc1-c1cccs1

Row | Compound | melting point [°C]
94 | CC(C)(N)Cc1c[nH]c2ccccc12 | 72 to 74
95 | Cc1ccc2ccc(N3C(=O)c4ccccc4C3OC(=O)N3CCN(C)CC3)nc2n1 (stereo not given) | 190
96 | CN(C(=O)Cc1cccc2ccccc12)C1c2ccccc2CCC1N1CCCC1 (stereo not given) | 125
97 | CCOP(=O)(OCC)C(O)c1cccc([N+](=O)[O-])c1 (stereo not given) | 93 to 95
98 | Cc1[nH]c2ccccc2c1CCN1CCN(N)CC1 | 118 to 120
99 | CN(Cc1ccncc1)c1ccc([N+](=O)[O-])c2c(C#N)cccc12 | 153 to 156
100 | CC1(C)NC(=O)CN1C(=O)CBr | 137 to 138
